Measurements: patent US20230114728A1 (Venatorx Pharmaceuticals, Inc., priority 2019, published 2023)
≈ marks a conversion by molar mass, not a printed value.

Experiments:
Assay in all cases: Liquid broth MIC in Fastidious broth
Type in all cases: cell-based
[1] = tested on: N. gonorrhoeae ATCC 49226; conditions: Neisseria gonorrhoeae, ATCC49226; N. gonorrhoeae strain ATCC 49226; Fastidious broth; read-out: Minimum Inhibitory Concentration, N. gonorrhoeae ATCC 49226
How it was run: (§1)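 Colonies were swabbed from chocolate agar after 24 h growth and standardised by optical density at 600 nm. Compounds were serially diluted twofold in Fastidious broth, and bacteria added to give 5×10^5 CFU/mL. After about 24 h at 36 °C in 5% CO2, the lowest concentration allowing under 10% growth was taken as MIC.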

N. gonorrhoeae FA1090 = conditions: Neisseria gonorrhoeae; N. gonorrhoeae strain FA1090; Fastidious broth; read-out: Minimum Inhibitory Concentration, N. gonorrhoeae FA1090
How it was run: as §1

N. gonorrhoeae H041 = conditions: Neisseria gonorrhoeae, H041, read-out: Minimum Inhibitory Concentration, N. gonorrhoeae H041
How it was run: (§2)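 Mosaic PBP2 producers; colonies from 24 h chocolate agar, saline suspension, OD600. Fastidious broth, 2-fold dilutions, 5×10^5 CFU/mL. ~24 h, 36 °C, 5% CO2; visual MIC, <10% growth cutoff.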

N. gonorrhoeae WHO G = conditions: Neisseria gonorrhoeae; N. gonorrhoeae strain WHO G; Fastidious broth; read-out: Minimum Inhibitory Concentration, N. gonorrhoeae WHO G
How it was run: as §1

N. gonorrhoeae WHO K = conditions: Neisseria gonorrhoeae, read-out: Minimum Inhibitory Concentration, N. gonorrhoeae WHO K
How it was run: as §2

N. gonorrhoeae WHO L = conditions: Neisseria gonorrhoeae; N. gonorrhoeae strain WHO L; Fastidious broth; read-out: Minimum Inhibitory Concentration, N. gonorrhoeae WHO L
How it was run: as §1

N. gonorrhoeae WHO Q = conditions: Neisseria gonorrhoeae, read-out: Minimum Inhibitory Concentration, N. gonorrhoeae WHO Q
How it was run: as §2

N. gonorrhoeae WHO Z = conditions: Neisseria gonorrhoeae, read-out: Minimum Inhibitory Concentration, N. gonorrhoeae WHO Z
How it was run: as §2

Row | Structure (SMILES) | MIC [1] | MIC (N. gonorrhoeae FA1090) | MIC (N. gonorrhoeae H041) | MIC (N. gonorrhoeae WHO G) | MIC (N. gonorrhoeae WHO K) | MIC (N. gonorrhoeae WHO L) | MIC (N. gonorrhoeae WHO Q) | MIC (N. gonorrhoeae WHO Z)
1 | CCN1CCN(C(=O)N[C@H](C(=O)N[C@H]2Cc3cccc(C(=O)O)c3OB2O)c2cc(Cl)c(O)cc2Cl)C(=O)C1=O (single isomer, unassigned) [Example 92] | > 64 µg/mL | 16 to 32 µg/mL (≈ 27 to 53.9 µM) | > 64 µg/mL | > 64 µg/mL | > 64 µg/mL | > 64 µg/mL | > 64 µg/mL | > 64 µg/mL
2 | NCCN1CCN(C(=O)N[C@@H](C(=O)N[C@H]2Cc3cccc(C(=O)O)c3OB2O)c2cc(Cl)c(O)cc2Cl)C(=O)C1=O [Example 90, (R)-3-((R)-2-(4-(2-aminoethyl)-2,3-dioxopiperazine-1-carboxamido)-2-(2,5-dichloro-4-hydroxyphenyl)acetamido)-2-hydroxy-3,4-dihydro-2H-benzo[e][1,2]oxaborinine-8-carboxylic acid] | > 64 µg/mL | 4 to 8 µg/mL (≈ 6.58 to 13.2 µM) | > 64 µg/mL | 16 to 32 µg/mL (≈ 26.3 to 52.6 µM) | > 64 µg/mL | > 64 µg/mL | > 64 µg/mL | > 64 µg/mL
3 | NCCN1CCN(C(=O)NC(C(=O)N[C@H]2Cc3cccc(C(=O)O)c3OB2O)c2cc(F)c(O)cc2F)C(=O)C1=O (stereo partly drawn) [Example 93, (3R)-3-(2-(4-(2-aminoethyl)-2,3-dioxopiperazine-1-carboxamido)-2-(2,5-difluoro-4-hydroxyphenyl)acetamido)-2-hydroxy-3,4-dihydro-2H-benzo[e][1,2]oxaborinine-8-carboxylic acid] | > 64 µg/mL | 1 to 2 µg/mL (≈ 1.74 to 3.48 µM) | > 64 µg/mL | 4 to 8 µg/mL (≈ 6.95 to 13.9 µM) | > 64 µg/mL | > 64 µg/mL | > 64 µg/mL | > 64 µg/mL
4 | NCCN1CCN(C(=O)N[C@H](C(=O)N[C@H]2Cc3cccc(C(=O)O)c3OB2O)c2ccc(O)cc2F)C(=O)C1=O (single isomer, unassigned) [Example 88] | > 64 µg/mL | 4 to 8 µg/mL (≈ 7.18 to 14.4 µM) | > 64 µg/mL | 16 to 32 µg/mL (≈ 28.7 to 57.4 µM) | > 64 µg/mL | > 64 µg/mL | > 64 µg/mL | > 64 µg/mL
5 | NCCN1CCN(C(=O)NC(C(=O)N[C@H]2Cc3cccc(C(=O)O)c3OB2O)c2c(F)cc(O)cc2Cl)C(=O)C1=O (stereo partly drawn) [Example 94, (3R)-3-(2-(4-(2-aminoethyl)-2,3-dioxopiperazine-1-carboxamido)-2-(2-chloro-6-fluoro-4-hydroxyphenyl)acetamido)-2-hydroxy-3,4-dihydro-2H-benzo[e][1,2]oxaborinine-8-carboxylic acid] | > 64 µg/mL | 4 to 8 µg/mL (≈ 6.76 to 13.5 µM) | > 64 µg/mL | 16 to 32 µg/mL (≈ 27 to 54.1 µM) | > 64 µg/mL | > 64 µg/mL | > 64 µg/mL | > 64 µg/mL
6 | CCN1CCN(C(=O)NC(C(=O)N[C@H]2Cc3cccc(C(=O)O)c3OB2O)c2cccc([N+](=O)[O-])c2)C(=O)C1=O (stereo partly drawn) [Example 75, (3R)-3-(2-(4-ethyl-2,3-dioxopiperazine-1-carboxamido)-2-(3-nitrophenyl)acetamido)-2-hydroxy-3,4-dihydro-2H-benzo[e][1,2]oxaborinine-8-carboxylic acid] | 4 to 8 µg/mL (≈ 7.23 to 14.5 µM) | 0.25 to 0.5 µg/mL (≈ 0.452 to 0.904 µM) | > 64 µg/mL | 4 to 8 µg/mL (≈ 7.23 to 14.5 µM) | > 64 µg/mL | > 64 µg/mL | 16 to 32 µg/mL (≈ 28.9 to 57.8 µM) | 16 to 32 µg/mL (≈ 28.9 to 57.8 µM)
7 | CCN1CCN(C(=O)NC(C(=O)N[C@H]2Cc3cccc(C(=O)O)c3OB2O)c2cccc(NC(=O)c3cncnc3)c2)C(=O)C1=O (stereo partly drawn) [Example 96, (3R)-3-(2-(4-ethyl-2,3-dioxopiperazine-1-carboxamido)-2-(3-(pyrimidine-5-carboxamido)phenyl)acetamido)-2-hydroxy-3,4-dihydro-2H-benzo[e][1,2]oxaborinine-8-carboxylic acid] | > 64 µg/mL | 4 to 8 µg/mL (≈ 6.36 to 12.7 µM) | > 64 µg/mL | 16 to 32 µg/mL (≈ 25.4 to 50.8 µM) | > 64 µg/mL | > 64 µg/mL | > 64 µg/mL | > 64 µg/mL
8 | NCCCN1CCN(C(=O)NC(C(=O)N[C@H]2Cc3cccc(C(=O)O)c3OB2O)c2ccc(C(N)=O)c(O)c2)C(=O)C1=O (stereo partly drawn) [Example 47, (3R)-3-(2-(4-(3-aminopropyl)-2,3-dioxopiperazine-1-carboxamido)-2-(4-carbamoyl-3-hydroxyphenyl)acetamido)-2-hydroxy-3,4-dihydro-2H-benzo[e][1,2]oxaborinine-8-carboxylic acid] | 4 to 8 µg/mL (≈ 6.71 to 13.4 µM) | 0.25 to 0.5 µg/mL (≈ 0.419 to 0.838 µM) | > 64 µg/mL | 4 to 8 µg/mL (≈ 6.71 to 13.4 µM) | > 64 µg/mL | > 64 µg/mL | > 64 µg/mL | > 64 µg/mL
9 | CCN1CCN(C(=O)NC(C(=O)N[C@H]2Cc3ccc(O[C@@H]4CN[C@H](C(=O)N(C)C)C4)c(C(=O)O)c3OB2O)c2ccccc2)C(=O)C1=O (stereo partly drawn) [Example 59, (3R)-7-(((3S,5S)-5-(dimethylcarbamoyl)pyrrolidin-3-yl)oxy)-3-(2-(4-ethyl-2,3-dioxopiperazine-1-carboxamido)-2-phenylacetamido)-2-hydroxy-3,4-dihydro-2H-benzo[e][1,2]oxaborinine-8-carboxylic acid] | > 64 µg/mL | 4 to 8 µg/mL (≈ 6.02 to 12 µM) | > 64 µg/mL | > 64 µg/mL | > 64 µg/mL | > 64 µg/mL | > 64 µg/mL | > 64 µg/mL
10 | CCN1CCN(C(=O)NC(C(=O)N[C@H]2Cc3cccc(C(=O)O)c3OB2O)c2cc(O)cc(O)c2)C(=O)C1=O (mixture of isomers) [Example 79, (3R)-3-(2-(3,5-dihydroxyphenyl)-2-(4-ethyl-2,3-dioxopiperazine-1-carboxamido)acetamido)-2-hydroxy-3,4-dihydro-2H-benzo[e][1,2]oxaborinine-8-carboxylic acid] | 1 to 2 µg/mL | < 0.125 µg/mL | 16 to 32 µg/mL | 1 to 2 µg/mL | 16 to 32 µg/mL | 16 to 32 µg/mL | 4 to 8 µg/mL | 4 to 8 µg/mL
11 | O=C(NC(C(=O)N[C@H]1Cc2ccc(F)c(C(=O)O)c2OB1O)c1ncc(O)cc1F)c1ccnc(F)c1 (stereo partly drawn) [Example 53, (3R)-7-fluoro-3-(2-(3-fluoro-5-hydroxypyridin-2-yl)-2-(2-fluoroisonicotinamido)acetamido)-2-hydroxy-3,4-dihydro-2H-benzo[e][1,2]oxaborinine-8-carboxylic acid] | > 64 µg/mL | 4 to 8 µg/mL (≈ 7.75 to 15.5 µM) | > 64 µg/mL | > 64 µg/mL | > 64 µg/mL | > 64 µg/mL | > 64 µg/mL | > 64 µg/mL
12 | N=C(N)NCCN1CCN(C(=O)NC(C(=O)N[C@H]2Cc3ccc(F)c(C(=O)O)c3OB2O)c2ccc(C(=O)O)c(F)c2)C(=O)C1=O (stereo partly drawn) [Example 78, (3R)-3-(2-(4-carboxy-3-fluorophenyl)-2-(4-(2-guanidinoethyl)-2,3-dioxopiperazine-1-carboxamido)acetamido)-7-fluoro-2-hydroxy-3,4-dihydro-2H-benzo[e][1,2]oxaborinine-8-carboxylic acid] | 16 to 32 µg/mL (≈ 24.8 to 49.6 µM) | 4 to 8 µg/mL (≈ 6.2 to 12.4 µM) | > 64 µg/mL | 4 to 8 µg/mL (≈ 6.2 to 12.4 µM) | > 64 µg/mL | > 64 µg/mL | > 64 µg/mL | 16 to 32 µg/mL (≈ 24.8 to 49.6 µM)
13 | CCN1CCN(C(=O)NC(C(=O)N[C@H]2Cc3cccc(C(=O)O)c3OB2O)c2cccc(NC(=O)c3cccnc3)c2)C(=O)C1=O (stereo partly drawn) [Example 97, (3R)-3-(2-(4-ethyl-2,3-dioxopiperazine-1-carboxamido)-2-(3-(nicotinamido)phenyl)acetamido)-2-hydroxy-3,4-dihydro-2H-benzo[e][1,2]oxaborinine-8-carboxylic acid] | > 64 µg/mL | 1 to 2 µg/mL (≈ 1.59 to 3.18 µM) | > 64 µg/mL | 4 to 8 µg/mL (≈ 6.37 to 12.7 µM) | > 64 µg/mL | > 64 µg/mL | > 64 µg/mL | > 64 µg/mL
14 | CCN1CCN(C(=O)NC(C(=O)N[C@H]2Cc3cccc(C(=O)O)c3OB2O)c2ccc(O)cc2O)C(=O)C1=O (stereo partly drawn) [Example 69, (3R)-3-(2-(2,4-dihydroxyphenyl)-2-(4-ethyl-2,3-dioxopiperazine-1-carboxamido)acetamido)-2-hydroxy-3,4-dihydro-2H-benzo[e][1,2]oxaborinine-8-carboxylic acid] | 4 to 8 µg/mL (≈ 7.4 to 14.8 µM) | 0.25 to 0.5 µg/mL (≈ 0.463 to 0.925 µM) | > 64 µg/mL | 4 to 8 µg/mL (≈ 7.4 to 14.8 µM) | > 64 µg/mL | 16 to 32 µg/mL (≈ 29.6 to 59.2 µM) | > 64 µg/mL | 16 to 32 µg/mL (≈ 29.6 to 59.2 µM)
15 | CCN1CCN(C(=O)NC(C(=O)N[C@H]2Cc3cccc(C(=O)O)c3OB2O)c2c(F)cc(O)cc2Cl)C(=O)C1=O (stereo partly drawn) [Example 95, (3R)-3-(2-(2-chloro-6-fluoro-4-hydroxyphenyl)-2-(4-ethyl-2,3-dioxopiperazine-1-carboxamido)acetamido)-2-hydroxy-3,4-dihydro-2H-benzo[e][1,2]oxaborinine-8-carboxylic acid] | 4 to 8 µg/mL (≈ 6.94 to 13.9 µM) | < 0.125 µg/mL | 16 to 32 µg/mL (≈ 27.7 to 55.5 µM) | 1 to 2 µg/mL (≈ 1.73 to 3.47 µM) | 16 to 32 µg/mL (≈ 27.7 to 55.5 µM) | 16 to 32 µg/mL (≈ 27.7 to 55.5 µM) | 16 to 32 µg/mL (≈ 27.7 to 55.5 µM) | 16 to 32 µg/mL (≈ 27.7 to 55.5 µM)
